Assay results taken from ChEMBL document CHEMBL3351591, “Synthetic (+)-terrein suppresses interleukin-6/soluble interleukin-6 receptor induced-secretion of vascular endothelial growth factor in human gingival fibroblasts” (Bioorg Med Chem, 2014).
Calls of active or inactive are those of the source. The rule behind the calls is not given here.

Key:
[1] = Cytotoxicity against HGF cells assessed as reduction in cell proliferation at >50 uM incubated for 24 hrs by MTT assay; format: cell-based; conditions: human
HGF [2] = assay: Inhibition of IL-6/soluble IL-6 receptor signaling-induced VEGF secretion in HGF cells pre-incubated for 30 mins before IL-6/soluble IL-6 receptor stimulation for 24 hrs by ELISA method; format: cell-based; conditions: Homo sapiens
HGF [3] = assay: Inhibition of endogenous VEGF secretion in HGF cells at 0.01 to 10 uM by ELISA method; format: functional, cell-based; conditions: Homo sapiens
HGF [4] = assay: Inhibition of IL-6/soluble IL-6 receptor signaling-induced JNK1/2 phosphorylation in HGF cells pre-incubated at 10 to 20 uM for before IL-6/soluble IL-6 receptor stimulation for 5 mins by Western blotting method; format: cell-based; conditions: Homo sapiens
HGF [5] = assay: Inhibition of IL-6/soluble IL-6 receptor signaling-induced STAT3 phosphorylation in HGF cells pre-incubated at 10 to 20 uM for before IL-6/soluble IL-6 receptor stimulation for 5 mins by Western blotting method; format: cell-based; conditions: Homo sapiens
HGF [6] = assay: Inhibition of IL-6/soluble IL-6 receptor signaling-induced ERK1/2 phosphorylation in HGF cells pre-incubated at 10 to 20 uM for before IL-6/soluble IL-6 receptor stimulation for 5 mins by Western blotting method; format: cell-based; conditions: Homo sapiens
[7] = Cytotoxicity against HGF cells assessed as cell proliferation at <10 uM incubated for 24 hrs by MTT assay; format: cell-based; conditions: human

Which results are given for `C/C=C/C1=CC(=O)[C@H](O)[C@H]1O`?
Activity [1]: Toxic; inhibition (HGF [2]): Dose-dependent effect; inhibition (HGF [3]): inactive; inhibition (HGF [4]): Active; inhibition (HGF [5]): Active; inhibition (HGF [6]): Active; Activity [7]: Non-toxic
